Measurements from the supplement of paper PMC6045584.
± gives the standard deviation of the averaged measurements.

Legend:
PLX-4720 = compound: CCCS(=O)(=O)Nc1ccc(F)c(C(=O)c2c[nH]c3ncc(Cl)cc23)c1F [PLX-4720]; experiment: surviving fraction relative to DMSO-only wells; higher = less growth inhibition; conditions: exposure time: 5 days
In short: (§1)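 Viability values are CellTiter-Glo luminescence readings, given as surviving fraction against the median of DMSO-only wells. The readings were taken after 10 minutes at room temperature, following five days of continuous exposure to inhibitors at 0.5, 1, 5, 10, 50, 100, 500 and 1000 nM that began 24 hours after log-phase tumour cell lines were seeded at 250–500 cells per well in 384-well plates. Every line was screened three times and kept only if replicate Pearson r >0.7 and median Z' >0.3.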

ETOPOSIDE = compound: COc1cc([C@@H]2c3cc4c(cc3[C@@H](O[C@@H]3O[C@@H]5CO[C@@H](C)O[C@H]5[C@H](O)[C@H]3O)[C@H]3COC(=O)[C@H]23)OCO4)cc(OC)c1O [ETOPOSIDE]; experiment: as above; conditions: exposure time: 5 days
In short: as §1

Test System | surviving fraction (PLX-4720; 0.5 nM) | surviving fraction (PLX-4720; 1 nM) | surviving fraction (PLX-4720; 5 nM) | surviving fraction (PLX-4720; 10 nM) | surviving fraction (PLX-4720; 50 nM) | surviving fraction (PLX-4720; 100 nM) | surviving fraction (PLX-4720; 500 nM) | surviving fraction (PLX-4720; 1000 nM) | surviving fraction (ETOPOSIDE; 0.5 nM) | surviving fraction (ETOPOSIDE; 1 nM) | surviving fraction (ETOPOSIDE; 5 nM) | surviving fraction (ETOPOSIDE; 10 nM) | surviving fraction (ETOPOSIDE; 50 nM) | surviving fraction (ETOPOSIDE; 100 nM) | surviving fraction (ETOPOSIDE; 500 nM) | surviving fraction (ETOPOSIDE; 1000 nM)
22RV1 PROSTATE | 1 ± 0.011 | 0.966 ± 0.076 | 0.971 ± 0.032 | 0.958 ± 0.036 | 0.936 ± 0.04 | 0.929 ± 0.053 | 0.825 ± 0.095 | 0.872 ± 0.049 | 1.03 ± 0.084 | 1 ± 0.083 | 0.928 ± 0.059 | 0.939 ± 0.023 | 0.922 ± 0.046 | 0.747 ± 0.047 | 0.42 ± 0.034 | 0.345 ± 0.03
93VU HEADNECK | 0.755 ± 0.071 | 0.813 ± 0.082 | 0.798 ± 0.044 | 0.877 ± 0.024 | 1.08 ± 0.011 | 1.07 ± 0.081 | 0.998 ± 0.092 | 1.02 ± 0.054 | 1 ± 0.042 | 1.07 ± 0.033 | 1.11 ± 0.037 | 1.05 ± 0.15 | 1.03 ± 0.12 | 1.14 ± 0.12 | 0.953 ± 0.054 | 0.896 ± 0.021
143B BONE | 0.979 ± 0.03 | 0.972 ± 0.023 | 0.99 ± 0.021 | 0.968 | 0.959 ± 0.061 | 0.986 ± 0.0071 | 0.855 ± 0.13 | 0.996 ± 0.028 | 0.981 ± 0.021 | 0.993 | 1.01 ± 0.016 | 1.03 ± 0.012 | 1.01 ± 0.012 | 0.979 ± 0.079 | 0.484 ± 0.005 | 0.297
A549 LUNG | 0.904 ± 0.027 | 0.928 ± 0.017 | 0.922 ± 0.017 | 0.922 ± 0.03 | 0.942 ± 0.012 | 0.98 ± 0.018 | 0.975 ± 0.027 | 1.02 ± 0.047 | 0.989 ± 0.071 | 0.99 ± 0.074 | 0.988 ± 0.026 | 0.976 ± 0.05 | 1 ± 0.057 | 1.09 ± 0.057 | 0.958 ± 0.048 | 0.67 ± 0.017
ASKA SYNOVIAL | 0.402 ± 0.04 | 0.905 ± 0.07 | 0.923 ± 0.041 | 1 ± 0.096 | 0.635 ± 0.032 | 1.21 ± 0.033 | 1.02 ± 0.077 | 1.08 ± 0.045 | 1.07 ± 0.14 | 0.949 ± 0.012 | 0.985 ± 0.052 | 0.881 ± 0.036 | 0.68 ± 0.049 | 0.453 ± 0.015 | 0.3413 ± 0.0023 | 0.319 ± 0.0085
BT20 BREAST | 0.783 ± 0.2 | 0.849 ± 0.16 | 0.774 ± 0.065 | 0.803 ± 0.056 | 1.07 ± 0.1 | 1.03 ± 0.19 | 1.05 ± 0.087 | 1.12 ± 0.067 | 1.13 ± 0.073 | 1.17 ± 0.089 | 0.936 ± 0.17 | 1.04 ± 0.13 | 0.995 ± 0.098 | 0.919 ± 0.14 | 0.454 ± 0.11 | 0.211 ± 0.052
BT549 BREAST | 0.855 ± 0.11 | 0.839 ± 0.092 | 0.857 ± 0.092 | 0.902 ± 0.074 | 1.09 ± 0.036 | 1.29 ± 0.061 | 1.19 ± 0.03 | 1.05 ± 0.15 | 0.976 ± 0.13 | 1.15 ± 0.075 | 1.06 ± 0.13 | 1.05 ± 0.12 | 0.939 ± 0.069 | 0.907 ± 0.13 | 0.32 ± 0.027 | 0.198 ± 0.034
CADOES1 SOFT TISSUE | 0.944 ± 0.025 | 0.935 ± 0.063 | 0.915 ± 0.051 | 0.933 ± 0.075 | 0.999 ± 0.14 | 0.869 ± 0.034 | 0.939 ± 0.075 | 1 ± 0.049 | 0.948 ± 0.12 | 0.908 ± 0.12 | 0.966 ± 0.04 | 0.97 ± 0.024 | 0.819 ± 0.048 | 0.977 ± 0.023 | 0.735 ± 0.053 | 0.528 ± 0.069
CAL51 BREAST | 0.926 ± 0.04 | 0.897 ± 0.026 | 0.985 ± 0.045 | 0.939 ± 0.038 | 0.992 ± 0.027 | 1.02 ± 0.029 | 1.04 ± 0.052 | 1.05 ± 0.04 | 0.951 ± 0.068 | 1.02 ± 0.022 | 0.956 ± 0.039 | 0.977 ± 0.049 | 0.929 ± 0.063 | 0.921 ± 0.019 | 0.305 ± 0.037 | 0.139 ± 0.011
CAL120 BREAST | 0.852 ± 0.027 | 0.899 ± 0.051 | 0.904 ± 0.04 | 0.881 ± 0.037 | 0.896 ± 0.022 | 0.946 ± 0.023 | 0.889 ± 0.071 | 0.911 ± 0.013 | 0.939 ± 0.036 | 0.933 ± 0.033 | 0.982 ± 0.016 | 0.973 ± 0.013 | 0.938 ± 0.035 | 0.939 ± 0.038 | 0.498 ± 0.1 | 0.356 ± 0.011
CASKI CERVIX | 0.795 ± 0.091 | 0.809 ± 0.029 | 0.847 ± 0.045 | 0.848 ± 0.033 | 0.97 ± 0.02 | 1.02 ± 0.033 | 0.998 ± 0.045 | 1.02 ± 0.058 | 0.904 ± 0.037 | 0.934 ± 0.061 | 0.99 ± 0.035 | 0.939 ± 0.014 | 0.876 ± 0.051 | 0.86 ± 0.0087 | 0.303 ± 0.019 | 0.182 ± 0.0059
CHLA90 AUTONOMIC GANGLIA | 0.333 ± 0.039 | 0.922 ± 0.041 | 0.753 ± 0.041 | 0.929 ± 0.044 | 0.371 ± 0.013 | 0.94 ± 0.018 | 0.98 ± 0.049 | 1.07 ± 0.061 | 0.964 ± 0.044 | 0.995 ± 0.043 | 0.978 ± 0.069 | 0.959 ± 0.042 | 0.925 ± 0.043 | 0.925 ± 0.043 | 0.557 ± 0.05 | 0.484 ± 0.02
CME SYNOVIAL | 0.101 ± 0.0087 | 0.904 ± 0.082 | 0.732 ± 0.072 | 0.945 ± 0.23 | 0.217 ± 0.021 | 1.24 ± 0.14 | 1.02 ± 0.14 | 1.12 ± 0.044 | 1.18 ± 0.13 | 1.09 ± 0.048 | 1.13 ± 0.081 | 1.13 ± 0.13 | 0.766 ± 0.015 | 0.364 ± 0.04 | 0.265 ± 0.0095 | 0.369 ± 0.023
COLO320DM LARGE INTESTINE | 0.376 ± 0.022 | 0.996 ± 0.12 | 0.921 ± 0.08 | 1.07 ± 0.11 | 0.462 ± 0.075 | 1.07 ± 0.086 | 1.03 ± 0.088 | 0.979 ± 0.079 | 1.16 ± 0.034 | 1.05 ± 0.058 | 1.15 ± 0.044 | 1.05 ± 0.093 | 1.14 ± 0.046 | 1.05 ± 0.049 | 1.04 ± 0.03 | 0.962 ± 0.042
DU4475 BREAST | 0.783 ± 0.23 | 0.699 ± 0.14 | 0.791 ± 0.16 | 0.741 ± 0.1 | 0.597 ± 0.19 | 0.603 ± 0.17 | 0.0833 ± 0.03 | 0.0277 ± 0.0075 | 0.932 ± 0.028 | 0.97 ± 0.11 | 0.848 ± 0.075 | 0.7 ± 0.089 | 0.257 ± 0.1 | 0.146 ± 0.037 | 0.0573 ± 0.011 | 0.0397 ± 0.0084
H23 LUNG | 0.873 ± 0.037 | 0.943 ± 0.057 | 0.93 ± 0.055 | 0.968 ± 0.068 | 0.971 ± 0.028 | 1.06 ± 0.018 | 1.06 ± 0.044 | 1.17 ± 0.014 | 0.988 ± 0.067 | 1.07 ± 0.053 | 1.01 ± 0.033 | 1.04 ± 0.056 | 1.11 ± 0.03 | 1.07 ± 0.04 | 0.565 ± 0.019 | 0.509 ± 0.02
HCC38 BREAST | 0.812 ± 0.15 | 0.836 ± 0.19 | 0.893 ± 0.14 | 0.911 ± 0.17 | 1.03 ± 0.11 | 1.05 ± 0.28 | 1.12 ± 0.1 | 1.03 ± 0.28 | 1.28 ± 0.31 | 1.19 ± 0.15 | 1.16 ± 0.18 | 1.17 ± 0.1 | 1.09 ± 0.054 | 1.21 ± 0.059 | 0.53 ± 0.067 | 0.316 ± 0.026
HCC70 BREAST | 1.02 ± 0.06 | 0.984 ± 0.14 | 1.04 ± 0.034 | 1.02 ± 0.034 | 1.03 ± 0.068 | 1.03 ± 0.091 | 1.03 ± 0.12 | 0.963 ± 0.082 | 1.05 ± 0.078 | 0.995 ± 0.053 | 1.08 ± 0.044 | 1.09 ± 0.1 | 0.991 ± 0.13 | 1.09 ± 0.09 | 0.785 ± 0.077 | 0.578 ± 0.016
HCC78 LUNG | 0.318 ± 0.06 | 1.01 ± 0.17 | 0.964 ± 0.06 | 1.05 ± 0.3 | 0.761 ± 0.13 | 1.01 ± 0.077 | 0.869 ± 0.04 | 0.951 ± 0.12 | 0.952 ± 0.064 | 0.863 ± 0.27 | 1 ± 0.082 | 0.925 ± 0.16 | 0.841 ± 0.11 | 0.649 ± 0.099 | 0.0883 ± 0.027 | 0.089 ± 0.024
HCC202 BREAST | 0.964 ± 0.1 | 1.22 ± 0.12 | 1.08 ± 0.17 | 1.09 ± 0.046 | 1.2 ± 0.11 | 1.46 ± 0.26 | 1.12 ± 0.28 | 1.06 ± 0.33 | 1.08 ± 0.35 | 1.11 ± 0.12 | 1.17 ± 0.066 | 0.994 ± 0.18 | 1.14 ± 0.18 | 1.14 ± 0.22 | 0.84 ± 0.31 | 0.724 ± 0.13
